Source: a compilation of properties of binary mixtures (doi:10.1007/s10953-014-0257-1)

Assay: xn = mol fraction of the nth substance listed
Details: 101 kPa

c1ccc2sccc2c1 + CCCC[N+]1(C)CCCC1.N#C[C-](C#N)C#N
x1 = 1
Details	viscosity [mPa·s]
308.15 K	2.94
318.15 K	2.06
328.15 K	1.74
338.15 K	1.49
348.15 K	1.29
358.15 K	1.14

CCCC[N+]1(C)CCCC1.N#C[C-](C#N)C#N + c1ccc2sccc2c1
viscosity [mPa·s]
Details	x2 = 0	x2 = 0.1112	x2 = 0.2212	x2 = 0.3565	x2 = 0.5267	x2 = 0.6111	x2 = 0.6767
308.15 K	–	18.8	17	14.78	–	10.45	9.23
318.15 K	15.44	14.1	12.77	11.13	9.01	7.87	6.89
328.15 K	12	10.97	9.95	8.69	–	6.19	5.41
338.15 K	9.59	8.77	7.96	–	5.68	4.98	4.36
348.15 K	7.81	7.16	6.49	5.67	4.65	4.1	3.59
358.15 K	6.47	5.93	5.38	4.74	3.88	3.44	3.03
